Patent publication US20230270763A1, “METHOD OF TREATING C[…] CANNABINOIDS AND DERIVATIVES” (PASCAL BIOSCIENCES INC., priority 2020, published 2023)
pEC50, pIC50: −log10 of the molar value. Read-outs that look alike come from different tables or passages of the source.

What was measured:
[1] = system: SARS-CoV-2 Everett strain; assay: protection of Calu-3 cells from SARS-CoV-2 Everett strain-induced cytotoxicity (CellTiter Glo 2.0); conditions: read-out: IC50, protection of Calu-3 cells from SARS2-induced cytotoxicity
[2] = system: SARS-CoV-2 Toronto strain; assay: cytopathic effect screening assay, SARS-CoV-2 Toronto strain in Vero E6 cells; type: cell-based; conditions: Severe acute respiratory syndrome coronavirus 2, Vero C1008; Vero E6 cells mixed with virus; CBD 20 nM to 10 μM; cell viability after 72 hours; FIG. 1; read-out: EC50, inhibition of cell death of virally-infected cells
[3] = system: Vero E6 cells; conditions: Vero E6 cultures not exposed to virus; 20 nM to 10 μM; 72 hours
[4] = system: SARS-CoV-2; conditions: reported by Nguyen et al., March 2021; cited from earlier work
[5] = Severe acute respiratory syndrome coronavirus 2, Calu-3, 96 h

| SMILES | pIC50 [1, 5] | pEC50 [2] | cytotoxicity over the concentration range tested [3] | effect on SARS-CoV-2 replication [4] | pIC50 ([1]; Calu-3, 96 hours, MOI 0.5 to 2.0, three-fold dilutions from 10 μM) |
| --- | --- | --- | --- | --- | --- |
| C=C(C)[C@@H]1CCC(C)=C[C@H]1c1c(O)cc(CCCCC)cc1O [CBD, (−)-Cannabidiol] | 6.92 | 5.07 | No cytotoxicity | inhibits SARS-CoV-2 replication | – |
| C=C(C)[C@@H]1CCC(C)=C[C@H]1c1c(O)cc(CCC)cc1O [cannabidivarin, (−)-Cannabidivarin] | 7.37 | – | – | – | – |
| CCCCCc1cc(O)c(C/C=C(\C)CCC=C(C)C)c(O)c1 [cannabigerol, Cannabigerol] | – | – | – | – | 6.92 |
